A word on the EC50: it is the concentration that produces a half-maximal response.

In experiment [1] the target is T1, recombinantly expressed His-tagged protein corresponding to amino acids 575-869 of human Tyk2 (Homo sapiens, UniProt P29597).
T1 construct: corresponding to amino acids 575-869 of human Tyk2; made in house
Kind of experiment: Probe displacement assay (scintillation proximity, [3H] probe). In kind it is binding. Particulars: 2.5 nM Tyk2 (575-869), 40 nM radiolabeled probe, 30 minutes at room temperature. For orientation: SPA uses beads or plates that emit light when radiolabelled molecules are held near them.

The subject of experiment [2] is IL-23-stimulated STAT-dependent luciferase reporter in Kit225 T cells. Kind of experiment: Kit225 T cell assay, IL-23 stimulated STAT-dependent luciferase reporter. The format is cell-based, human. The conditions noted are these: Kit225 T cells, 20 ng/mL human recombinant IL-23, 5-6 hours, luciferase; read-out: IL23 (Kit225 T Cell Inhibition Data). In short, it runs like this: (§1)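 Kit225 T cells carrying a stably integrated STAT-luciferase reporter, in RPMI with 10% heat-inactivated FBS, were stimulated with 20 ng/mL IL-23 or 200 U/mL IFNα for 5-6 h. Readout was luminescence from the luciferase reporter.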
A general note: In a reporter assay the amount or activity of a reporter protein is the signal.

The test system of experiment [3] is IFNα-stimulated STAT-dependent luciferase reporter in Kit225 T cells. Kind of experiment: Kit225 T cell assay, IFNα stimulated STAT-dependent luciferase reporter. The conditions noted are these: Kit225 T cells, 200 U/mL human recombinant IFNα, 5-6 hours, luciferase; read-out: IFNα (Kit225 T Cell Inhibition Data). In kind it is cell-based, human. The method, boiled down:
as §1

Each structure is given as a SMILES string.

T1 sequence (P29597 575-869): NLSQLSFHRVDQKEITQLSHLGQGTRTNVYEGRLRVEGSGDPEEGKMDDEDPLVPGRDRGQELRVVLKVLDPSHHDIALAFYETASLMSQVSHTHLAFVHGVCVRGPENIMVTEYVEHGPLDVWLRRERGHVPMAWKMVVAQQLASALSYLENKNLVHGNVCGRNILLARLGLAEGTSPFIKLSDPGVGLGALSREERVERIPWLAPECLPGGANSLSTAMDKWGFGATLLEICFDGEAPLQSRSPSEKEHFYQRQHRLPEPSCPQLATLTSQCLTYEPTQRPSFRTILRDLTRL

Turning to `CNC(=O)c1cnc(Nc2cc(C)c(F)cn2)cc1Nc1cccc(C(=O)NCc2nccs2)c1OC` [Example 345], in experiment [1], the EC50 was 10.5 nM. Besides, the IC50 in experiment [2] and in experiment [3] was 30 nM each time.

For `CNC(=O)c1cnc(Nc2cc(C)c(F)cn2)cc1Nc1cccc(C(=O)NCCF)c1OC` [Example 356], the EC50 in experiment [1] was 2.6 nM. The IC50 stood at 120 nM in experiment [2] and 80 nM in experiment [3].

As to `CNC(=O)c1cnc(Nc2cc(C)c(F)cn2)cc1Nc1cccc(-c2nnco2)c1OC` [Example 358], the EC50 in experiment [1] was 5.3 nM. In addition, the IC50 in experiment [2] amounted to 9.98 nM; in experiment [3], 10 nM.

With `CNC(=O)c1cnc(Nc2cc(C)n(C)n2)cc1Nc1cccc(-c2nnc[nH]2)c1OC` [Example 363], the EC50 in experiment [1] turned out to be 4.7 nM. For the same compound, the IC50 in experiment [2] was found to be 70 nM; in experiment [3], 40 nM.

Turning to `CNC(=O)c1cnc(Nc2cc(C)nc(C)n2)cc1Nc1cccc(-c2nnc(C)[nH]2)c1OC` [Example 365], in experiment [1], the EC50 is 4.8 nM. Moreover, the IC50 in experiment [2] and in experiment [3] was 10 nM in each case.

Turning to `CCn1cnc(-c2cccc(Nc3cc(Nc4cc(C)nc(C)n4)ncc3C(=O)NC)c2OC)n1` [Example 382], the EC50 in experiment [1] worked out at 4.6 nM. The values for the IC50 in experiment [2] and in experiment [3] were 10 nM and 5.07 nM, respectively.

As to `CCn1ncnc1-c1cccc(Nc2cc(Nc3cc(C)nc(C)n3)ncc2C(=O)NC)c1OC` [Example 383], in experiment [1], the EC50 came out at 6.1 nM. For the same compound, the IC50 in experiment [2] was 100 nM; in experiment [3], 20 nM.

For `CNC(=O)c1cnc(Nc2cc(C)c(F)cn2)cc1Nc1cccc(-c2nc[nH]n2)c1OC(F)F` [Example 387], in experiment [1], the half-maximal effective concentration (EC50) was 4.6 nM. In addition, the IC50 in experiment [2] turned out to be 280 nM; in experiment [3], 120 nM.

For `CNC(=O)c1cnc(Nc2cc(C)c(F)cn2)cc1Nc1cccc(-c2ccn(C)n2)c1OC` [Example 391], in experiment [1], the EC50 is 6 nM. For the same compound, the IC50 in experiment [2] came out at 9.66 nM; in experiment [3], 10 nM.

Turning to `CNC(=O)c1cnc(Nc2cc(C)nc(C)n2)cc1Nc1cccc(-c2ccn(C)n2)c1OC` [Example 393], the concentration for a half-maximal effect (EC50) in experiment [1] was determined as 3.5 nM. The IC50 in experiment [2] came out at 5.83 nM; in experiment [3], 2.86 nM.

As to `CNC(=O)c1cnc(Nc2cc(C)nc(C)n2)cc1Nc1cccc(-c2cnn(C)c2)c1OC` [Example 395], the EC50 in experiment [1] was 3.1 nM. For the same compound, the results for the IC50 in experiment [2] and in experiment [3] were 30 nM and 20 nM, respectively.

Take `CNC(=O)c1cnc(Nc2cc(C)c(F)cn2)cc1Nc1cccc(-c2cnn(C)c2)c1OC` [Example 396]: the EC50 in experiment [1] was determined as 6.5 nM. In addition, the figures for the IC50 in experiment [2] and in experiment [3] were 110 nM and 60 nM, respectively.

As to `CNC(=O)c1cnc(Nc2cc(C)nc(C)n2)cc1Nc1cc(F)cc(F)c1OC` [Example 409], the EC50 in experiment [1] came to 6.3 nM. Also, the IC50 in experiment [2] was found to be 40 nM; in experiment [3] it was 20 nM.

Consider `CCc1cc(Nc2cc(Nc3ccccc3S(C)(=O)=O)c(C(=O)NC)cn2)ncn1` [Example 420], for which the EC50 in experiment [1] came out at 3 nM. For the same compound, the IC50 in experiment [2] is 80 nM; in experiment [3], 120 nM.

As for `CNC(=O)c1cnc(Nc2cc(OC(C)C)ncn2)cc1Nc1ccccc1S(C)(=O)=O` [Example 422], in experiment [1], the EC50 is 5.7 nM. Also, the IC50 in experiment [2] came to 310 nM; in experiment [3], 180 nM.

For `CNC(=O)c1cnc(Nc2ccc(F)cn2)cc1Nc1ccccc1N(C)S(C)(=O)=O` [Example 426], the EC50 in experiment [1] was found to be 4.2 nM. In addition, the IC50 in experiment [2] and in experiment [3] was 10 nM in each case.

`[2H]C([2H])([2H])NC(=O)c1cnc(Nc2cc(C)c(C#N)c(C)n2)cc1Nc1ccccc1S(C)(=O)=O` [Example 438]: the EC50 in experiment [1] was 11.5 nM. Moreover, the IC50 in experiment [2] was 150 nM; in experiment [3], 80 nM.

In the case of `[2H]C([2H])([2H])NC(=O)c1cnc(Nc2ccc(C)nn2)cc1Nc1cccc(-c2csc(C)n2)c1OC` [Example 448], the concentration giving a half-maximal response (EC50) in experiment [1] was found to be 8 nM. Also, the IC50 in experiment [2] was found to be 11 nM; in experiment [3] it was 17 nM.

`[2H]C([2H])([2H])NC(=O)c1cnc(Nc2ccccn2)cc1Nc1cccc(-c2ncc(F)cn2)c1OC` [Example 449]: the 50% effective concentration (EC50) in experiment [1] came to 1.1 nM. Also, the values for the IC50 in experiment [2] and in experiment [3] were 20 nM and 10 nM, respectively.

With `[2H]C([2H])([2H])NC(=O)c1cnc(Nc2cc(C(C)(C)O)ccn2)cc1Nc1cccc(-c2ncc(F)cn2)c1OC` [Example 450], the EC50 in experiment [1] stood at 7.3 nM. Moreover, the results for the IC50 in experiment [2] and in experiment [3] were 20 nM and 10 nM, respectively.

The values above are taken from patent US9315494B2, “Alkyl-amide-substituted pyridyl compounds useful as modulators of IL-12, IL-23 and/or IFNα responses” (Bristol-Myers Squibb Company, priority 2012, dated 2016).
